Test results published in publication PMC12340956, “Tranylcypromine-Based LSD1 Inhibitors as Useful Agents to Reduce Viability of” (ACS Infectious Diseases, 2025).
Counter-ions that a name gives are not always drawn. Like-named read-outs stand apart in the source and are kept apart here.

What was measured:
[1] = system: newly transformed schistosomula (NTS); experiment: NTS viability phenotypic screening, 72 h; conditions: for IC50: Schistosoma mansoni, read-out: IC50 (NTS viability)
[2] = system: human recombinant LSD1-CoREST enzymatic complex; conditions: Table S1, cited from earlier work
[3] = system: adult worms; experiment: Adult worm viability phenotypic assay, 72 h; conditions: Schistosoma mansoni, read-out: IC50 (adult worm viability)
[4] = biological target: T1, human LSD1-CoREST complex (Homo sapiens, UniProt O60341); experiment: ThermoFAD thermal stability assay; type: binding; conditions: LSD1-CoREST thermal stability
T1 construct: made in house
Procedure: Compounds 14–22 were tested against the human LSD1-CoREST complex to determine their inhibitory activity. […] ThermoFAD assays were then performed to assess the impact of 14–22 on the thermal stability (ΔT m values, Table ) of the LSD1-CoREST complex. The most significant shifts in Tm values corresponded to the strongest binders. […] Compound 22 was not tested, considering its previous negative results.
Protein expression, thermal stability, and inhibition of human LSD1-CoREST were performed using established protocols. […] LSD1-CoREST (0.4 μM) was preincubated with the inhibitor at 25 °C for 10 min in the presence of 5% DMSO. The reaction was initiated by adding an equal volume of the substrate solution to the enzyme–inhibitor mixture, and resorufin fluorescence (excitation at 530–570 nm and emission at 580–590 nm) was detected with a Clariostar plate reader.

[5] = biological target: T1, human LSD1-CoREST complex; experiment: HRP-coupled LSD1 inhibition assay; type: biochemical; conditions: 10 min preincubation, read-out: IC50 (hLSD1 direct inhibition)
Procedure: Protein expression, thermal stability, and inhibition of human LSD1-CoREST were performed using established protocols. […] The reaction was initiated by adding an equal volume of the substrate solution to the enzyme–inhibitor mixture, and resorufin fluorescence (excitation at 530–570 nm and emission at 580–590 nm) was detected with a Clariostar plate reader.

[6] = ref 2 (SI: Fioravanti et al., ChemMedChem 2020)
[7] = ref 4 (SI: Rodriguez et al., MedChemComm 2015)

| Structure (SMILES) | Percentage of reduction of NTS viability, 72 h ([1]; 10 μM) | Percentage of reduction of NTS viability, 72 h ([1]; 20 μM) | IC50 [1] | IC50 [2, 6] | IC50 [2, 7] | IC50 [3] | ΔTm [4] | IC50 [5] |
| --- | --- | --- | --- | --- | --- | --- | --- | --- |
| NC1CC1c1ccc(NC(=O)Cc2cccc3ccccc23)cc1 (stereo not shown) [Compound 8] | 46.5 ± 2.6% | 50.0 ± 0.0% | > 10000 nM | […] |  |  |  |  |
| NC1CC1c1ccc(NC(=O)CNC(=O)OCc2ccccc2)cc1 (stereo not shown) [Compound 9] | 37.93 ± 1.7% | 41.7 ± 4.2% | > 20000 nM |  | 300 ± 30 nM |  |  |  |
| NC1CC1c1ccc(NC(=O)C2CCCN2C(=O)OCc2ccccc2)cc1 (stereo not shown) [Compound 10] | 32.8 ± 0.9% | 37.5 ± 4.2% | > 20000 nM |  | 60 ± 10 nM |  |  |  |
| NC1CC1c1ccc(NC(=O)C(Cc2ccccc2)NC(=O)OCc2ccccc2)cc1 (stereo not shown) [Compound 11, benzyl (1-((4-(2-aminocyclopropyl)phenyl)amino)-1-oxo-3-phenylpropan-2-yl)carbamate] |  |  |  |  |  | > 20000 nM |  |  |
| NC1CC1c1ccc(NC(=O)C(Cc2c[nH]c3ccccc23)NC(=O)OCc2ccccc2)cc1 (stereo not shown) [Compound 12] | 41.4 ± 1.7% | 50.0 ± 0.0% | > 10000 nM | 190 ± 30 nM |  |  |  |  |
| NC1CC1c1ccc(NC(=O)C(Cc2csc3ccccc23)NC(=O)OCc2ccccc2)cc1 (stereo not shown) [Compound 13] | 36.2 ± 0.9% | 50.0 ± 4.2% | > 10000 nM | 80 ± 10 nM |  |  |  |  |
| Cc1ccc(C(=O)Nc2ccc(C3CC3N)cc2)cc1.Cl (stereo not shown) [Compound 14, N-(4-(2-Aminocyclopropyl)phenyl)-4-methylbenzamide Hydrochloride] | 22.9 ± 2.1% | 41.7 ± 4.2% | > 20000 nM |  |  |  | +8 °C | 150 ± 20 nM |
| N#Cc1ccc(C(=O)Nc2ccc(C3CC3N)cc2)cc1 (stereo not shown) [Compound 17, N-(4-(2-Aminocyclopropyl)phenyl)-4-cyanobenzamide Hydrochloride] | 25.0 ± 0.0% | 31.2 ± 6.3% | > 20000 nM |  |  |  | +8.5 °C | 150 ± 20 nM |
